Experimental data reported in patent publication US20230085307A1, “PYRIDAZINONE COMPOUND AND HERBICIDE” (NISSAN CHEMICAL CORPORATION, priority 2019, published 2023).

Tests used:
blackgrass [1] = assay: Test Example 4: herbicidal effect by soil treatment (Table 19, symbol J); type: in vivo, blackgrass (Alopecurus myosuroides)
How it was run: (§1)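 Soil-surface application: an emulsion agent diluted with water to the predetermined dose is sprayed uniformly over seeds lying under roughly 1.5 cm of sterilized diluvial soil. Boxes stay in a greenhouse at 25° C. to 30° C. Three weeks later, each species is graded on previously defined criteria.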

green foxtail = assay: Test Example 5: herbicidal effect by foliage application, plastic box (Table 20, symbol G); type: in vivo, green foxtail (Setaria viridis); details: foliage application, three weeks after application
How it was run: (§2)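 Sow seeds spot-wise in sterilized diluvial soil; cover with ~1.5 cm soil. Grow 14 days in greenhouse, 25° C. to 30° C. Spray foliage with emulsion diluted to predetermined amount. Rate effect after 3 weeks.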

barnyard grass [2] = assay: Test Example 5: herbicidal effect by foliage application, plastic box (Table 20, symbol H); type: in vivo, barnyard grass (Echinochloa crus-galli); details: foliage application, three weeks after application
How it was run: as §2

redroot pigweed [3] = assay: Test Example 5: herbicidal effect by foliage application, plastic box (Table 20, symbol N); type: in vivo, redroot pigweed (Amaranthus retroflexus); details: foliage application, 296 g/ha, three weeks after application
How it was run: as §2

wild oat [4] = assay: Test Example 4: herbicidal effect by soil treatment (Table 19, symbol I); type: in vivo, wild oat (Avena fatua)
How it was run: as §1

false cleavers [5] = assay: Test Example 4: herbicidal effect by soil treatment (Table 19, symbol Q); type: in vivo, false cleavers (Galium spurium); details: amount of applied herbicide 296 g/ha
How it was run: as §1

late watergrass = assay: Test Example 1: herbicidal activity, application before weed generation under submerged conditions (Table 16, symbol A); type: in vivo, late watergrass (Echinochloa oryzicola)
How it was run: (§3)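 Submerged Wagner pots (alluvial soil, 4 cm water) sown with weed seeds and planted with 2.5-leaf rice seedlings; emulsifiable concentrate diluted in water applied to water surface on sowing day. Held in greenhouse at 25-30 °C; injury scored 0-5 by herbicidal rate after three weeks.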

redroot pigweed [6] = assay: Test Example 4: herbicidal effect by soil treatment (Table 19, symbol N); type: in vivo, redroot pigweed (Amaranthus retroflexus)
How it was run: as §1

Italian ryegrass = assay: Test Example 4: herbicidal effect by soil treatment (Table 19, symbol K); type: in vivo, Italian ryegrass (Lolium multiflorum)
How it was run: as §1

Japanese bulrush [7] = assay: Test Example 1: herbicidal activity, application before weed generation under submerged conditions (Table 16, symbol B); type: in vivo, Japanese bulrush (Schoenoplectus juncoides)
How it was run: as §3

chickweed = assay: Test Example 5: herbicidal effect by foliage application, plastic box (Table 20, symbol P); type: in vivo, common chickweed (Stellaria media); details: foliage application, 296 g/ha, three weeks after application
How it was run: as §2

southern crabgrass = assay: Test Example 4: herbicidal effect by soil treatment (Table 19, symbol F); type: in vivo, southern crabgrass (Digitaria ciliaris)
How it was run: as §1

oval-leafed pondweed = assay: Test Example 2: herbicidal activity, application during weed generation under submerged conditions (Table 17, symbol C); type: in vivo, oval-leafed pondweed (Monochoria vaginalis); details: application during weed generation, submerged conditions
How it was run: (§4)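 Alluvial soil in Wagner pots was flooded to 4 cm depth and sown with the three weeds together; pots were kept in a greenhouse at 25° C. to 30° C. At the one to two leaf stage, an emulsion formulation diluted in water to a set rate went onto the water surface; scored three weeks later.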

wild oat [8] = assay: Test Example 5: herbicidal effect by foliage application, plastic box (Table 20, symbol I); type: in vivo, wild oat (Avena fatua); details: foliage application, three weeks after application
How it was run: as §2

Japanese bulrush [9] = assay: Test Example 2: herbicidal activity, application during weed generation under submerged conditions (Table 17, symbol B); type: in vivo, Japanese bulrush (Schoenoplectus juncoides); details: application during weed generation, submerged conditions
How it was run: as §4

blackgrass [10] = assay: Test Example 5: herbicidal effect by foliage application, plastic box (Table 20, symbol J); type: in vivo, blackgrass (Alopecurus myosuroides); details: foliage application, three weeks after application
How it was run: as §2

barnyard grass [11] = assay: Test Example 4: herbicidal effect by soil treatment (Table 19, symbol H); type: in vivo, barnyard grass (Echinochloa crus-galli)
How it was run: as §1

false cleavers [12] = assay: Test Example 5: herbicidal effect by foliage application, plastic box (Table 20, symbol Q); type: in vivo, false cleavers (Galium spurium); details: foliage application, 296 g/ha, three weeks after application
How it was run: as §2

soybean = assay: Test Example 5: effect on crop by foliage application, plastic box (Table 20, symbol d); type: in vivo; details: 320 g/ha, three weeks after application
How it was run: as §2

corn = assay: Test Example 5: effect on crop by foliage application, plastic box (Table 20, symbol c); type: in vivo; details: 320 g/ha, three weeks after application
How it was run: as §2

beet = assay: Test Example 5: effect on crop by foliage application, plastic box (Table 20, symbol f); type: in vivo; details: 320 g/ha, three weeks after application
How it was run: as §2

[13] = amount of applied herbicide 296 g/ha
[14] = amount of applied herbicide 320 g/ha

**Q.** For CCCC(=O)Oc1c(C)nn(C)c(=O)c1-c1c(-c2ccccc2OC)sc2cc(OC)ccc12 [Compound No. 3-066, 5-(6-methoxy-2-(2-methoxyphenyl)benzo[b]thiophen-3-yl)-1,3-dimethyl-6-oxo-1,6-dihydropyridazin-4-yl=(n-butyrate)], which “J: blackgrass, herbicidal effect grade” value (blackgrass [1]; [13]) is on record?
**A.** 3 (Herbicidal rate of 40% or more and less than 70%)

**Q.** And the “G: green foxtail, herbicidal effect grade” value (green foxtail; 296 g/ha)?
**A.** 4 (Herbicidal rate of 70% or more and less than 90%)

**Q.** What about the “H: barnyard grass, herbicidal effect grade” value (barnyard grass [2]; 296 g/ha) of the same compound?
**A.** 4 (Herbicidal rate of 70% or more and less than 90%)

**Q.** What about the “N: redroot pigweed, herbicidal effect grade” value (redroot pigweed [3]) of the same compound?
**A.** 5 (Herbicidal rate of 90% or more (almost completely withered))

**Q.** And the “I: wild oat, herbicidal effect grade” value (wild oat [4]; [13])?
**A.** 2 (Herbicidal rate of 20% or more and less than 40%)

**Q.** And the “Q: false cleavers, herbicidal effect grade” value (false cleavers [5])?
**A.** 2 (Herbicidal rate of 20% or more and less than 40%)

**Q.** What about the “Herbicidal effect, A: late watergrass” value (late watergrass; [13]) of the same compound?
**A.** 5 (Herbicidal rate of 90% or more (almost completely withered))

**Q.** And the “N: redroot pigweed, herbicidal effect grade” value (redroot pigweed [6]; [13])?
**A.** 0 (Herbicidal rate of 5% or less (almost no effect))

**Q.** And the “K: Italian ryegrass, herbicidal effect grade” value (Italian ryegrass; [13])?
**A.** 4 (Herbicidal rate of 70% or more and less than 90%)

**Q.** And the “Herbicidal effect, B: Japanese bulrush” value (Japanese bulrush [7]; [13])?
**A.** 5 (Herbicidal rate of 90% or more (almost completely withered))

**Q.** And the “P: chickweed, herbicidal effect grade” value (chickweed)?
**A.** 5 (Herbicidal rate of 90% or more (almost completely withered))

**Q.** And the “F: southern crabgrass, herbicidal effect grade” value (southern crabgrass; [13])?
**A.** 0 (Herbicidal rate of 5% or less (almost no effect))

**Q.** And the “herbicidal effect rating, C: oval-leafed pondweed” value (oval-leafed pondweed; AAH 296 g/ha)?
**A.** 5 (Herbicidal rate of 90% or more (almost completely withered))

**Q.** And the “I: wild oat, herbicidal effect grade” value (wild oat [8]; 296 g/ha)?
**A.** 3 (Herbicidal rate of 40% or more and less than 70%)

**Q.** And the “herbicidal effect rating, B: Japanese bulrush” value (Japanese bulrush [9]; AAH 296 g/ha)?
**A.** 4 (Herbicidal rate of 70% or more and less than 90%)

**Q.** What about the “J: blackgrass, herbicidal effect grade” value (blackgrass [10]; 296 g/ha) of the same compound?
**A.** 4 (Herbicidal rate of 70% or more and less than 90%)

**Q.** What about the “H: barnyard grass, herbicidal effect grade” value (barnyard grass [11]; [13]) of the same compound?
**A.** 0 (Herbicidal rate of 5% or less (almost no effect))

**Q.** And the “Q: false cleavers, herbicidal effect grade” value (false cleavers [12])?
**A.** 0 (Herbicidal rate of 5% or less (almost no effect))

**Q.** Which results are given for COc1ccc(-c2oc3ccc(F)cc3c2-c2c(O)c(C)nn(C)c2=O)cc1 [Compound No. 9-020, 4-(5-fluoro-2-(4-methoxyphenyl)benzofuran-3-yl)-5-hydroxy-2,6-dimethylpyridazin-3(2H)-one]?
**A.** J: blackgrass, herbicidal effect grade (blackgrass [1]; [14]): 3 (Herbicidal rate of 40% or more and less than 70%); herbicidal effect on green foxtail (G) (green foxtail; 320 g/ha): 5 (Herbicidal rate of 90% or more (almost completely withered)); herbicidal effect on barnyard grass (H) (barnyard grass [2]; 320 g/ha): 5 (Herbicidal rate of 90% or more (almost completely withered)); melting point: 248 to 250 °C; I: wild oat, herbicidal effect grade (wild oat [4]; [14]): 2 (Herbicidal rate of 20% or more and less than 40%); Herbicidal effect, A: late watergrass (late watergrass; [14]): 5 (Herbicidal rate of 90% or more (almost completely withered)); N: redroot pigweed, herbicidal effect grade (redroot pigweed [6]; [14]): 5 (Herbicidal rate of 90% or more (almost completely withered)); K: Italian ryegrass, herbicidal effect grade (Italian ryegrass; [14]): 5 (Herbicidal rate of 90% or more (almost completely withered)); Herbicidal effect, B: Japanese bulrush (Japanese bulrush [7]; [14]): 5 (Herbicidal rate of 90% or more (almost completely withered)); effect on crop soybean (d) (soybean): 3 (Herbicidal rate of 40% or more and less than 70%); F: southern crabgrass, herbicidal effect grade (southern crabgrass; [14]): 4 (Herbicidal rate of 70% or more and less than 90%); herbicidal effect rating, C: oval-leafed pondweed (oval-leafed pondweed; AAH 320 g/ha): 3 (Herbicidal rate of 40% or more and less than 70%); effect on crop corn (c) (corn): 0 (Herbicidal rate of 5% or less (almost no effect)); herbicidal effect on wild oat (I) (wild oat [8]; 320 g/ha): 3 (Herbicidal rate of 40% or more and less than 70%); herbicidal effect rating, B: Japanese bulrush (Japanese bulrush [9]; AAH 320 g/ha): 3 (Herbicidal rate of 40% or more and less than 70%); herbicidal effect on blackgrass (J) (blackgrass [10]; 320 g/ha): 4 (Herbicidal rate of 70% or more and less than 90%); effect on crop beet (f) (beet): 5 (Herbicidal rate of 90% or more (almost completely withered)); H: barnyard grass, herbicidal effect grade (barnyard grass [11]; [14]): 4 (Herbicidal rate of 70% or more and less than 90%)
